Measured values from patent publication US8802866B2, “Pyridinylimidazolone derivatives for the inhibition of PI3 kinases” (Merck Patent GmbH, priority 2009, dated 2014).

Assays:
[1] = target: PI3Kalpha (Homo sapiens, UniProt P42336); assay: Biochemical PI3Kalpha assay (neomycin SPA, lipid phosphorylation); settings: human recombinant GST-PI3K
Procedure: (§1) The efficacy of the compounds according to the invention in the inhibition of PI3K-induced lipid phosphorylation can be investigated in the following binding assay. The assay combines scintillation proximity assay (SPA) technology (Amersham) with the ability of neomycin (a polycationic antibiotic) to bind phospholipids with high affinity and specificity. […] The coating of SPA beads with neomycin allows the detection of phosphorylated lipid substrates after incubation with recombinant PI3K and radioactive ATP in the same well by trapping the radioactive phospholipids by the SPA beads owing to their specific binding to neomycin. […] After incubation at room temperature for 120 minutes with gentle stirring, the reaction was stopped by addition of 200 μl of a solution comprising 250 μg of neomycin-coated PVT-SPA beads, ATP 60 mM and EDTA 6.2 mM in PBS. The assay is incubated at room temperature for a further 60 minutes with gentle stirring in order to enable binding of the phospholipids to the neomycin-SPA beads. After precipitation of the neomycin-coated PVT-SPA beads over 5 minutes at 1500×g, radioactive Ptdlns(3)P is quantified by scintillation counting in a Wallac Micro-Beta™ plate counter.

[2] = target: PI3Kbeta (Homo sapiens, UniProt P42338); assay: Biochemical PI3Kbeta assay (neomycin SPA, lipid phosphorylation); settings: human recombinant GST-PI3K
Procedure: as §1

[3] = target: recombinant PI3Kalpha (shortened form of the catalytic subunit) (Homo sapiens, UniProt P42336); assay: BIACORE PI3K binding assay (SPR); settings: 25° C.
Procedure: SPR measurements of the binding affinities and binding kinetics on PI3Kalpha surfaces with the aid of Biacore systems. The experiments are carried out on a Biacore S51 “Compound Characterization” or a Biacore T100 instrument utilising the default application “Kinetics/Affinity” Experimental conditions: recombinant PI3Kalpha (shortened form of the catalytic subunit, missing N terminal from about 100 to 150 aa, Mw about 110 kDa, prepared by Proteros Biostructures GmbH) is immobilised on Biacore CM5 chips (25° C., flow rate: 10 μl/min, utilising amine coupling at pH 7.40—Biacore Standard protocol). PI3Kalpha is employed in concentrations between 10 and 25 μg/ml. Depending on the duration of the injection time, immobilisation levels from 1700 to 11000 RU are achieved. The substances to be measured are added in the form of a titration series. The substance concentration is doubled for each subsequent injection. 10 different substance concentrations which cover a 500-fold dilution range are usually injected. […] Kinetic titration experiments are carried out at 25° C. with a flow rate of 30 μl/min, the sample contact time is 180 s, and the dissociation time is 240 s in a running buffer (20 mM HEPES pH7.40, 150 mM NaCl, 5 mM MgCl2, 1 mM DTT, 0.1 mM EDTA, 0.05% Tween 20) comprising 2% of DMSO. Buffer injections (as double references) identical to the sample injections are carried out in each case at the beginning of a continuous series. Solvent correction cycles (eight correction points, 1.4%-2.8% DMSO) are carried out at equal intervals. In order to condition the surface, at least five start-up cycles (buffer injections) are carried out. Data points are collected with a sample rate of 10 Hz. Surface regeneration is carried out after each measurement cycle, apart from after the solvent correction runs. For this purpose, two times 100 mM NaHCO3 pH 8.60 are injected for 30 sec. Data sets are processed and analysed using the Biacore S51 Evaluation software, version 1.2.1, or Biacore T100 Evaluation, version 2.0. Solvent-corrected and double-referenced association and dissociation phase data are adapted to a simple 1:1 interaction model with mass transport limitations.

[4] = tested on: PI3K-dependent phosphorylation of PKB at Serin 473 in PC3 cells; assay: Cellular PI3K assay (P-S473-PKB Luminex assay in PC3 cells); format: cell-based; settings: Homo sapiens, PC-3, 0.5 h; PC3 cells, 30 min, serum-free, P-S473-PKB; read-out: IC50 (cell)
Procedure: The cellular assay for determination of the P-S473-PKB level is carried out as a Luminex assay in 96-well format in PC3 cells.
PC3 cells are sown out with 20,000 cells per well in 100 μl medium (45% […]/45% Ham's F12/10% FCS) and incubated on the following day for 30 min with a serial dilution of the test substance (7 concentrations) under serum-free conditions. The cells are subsequently lysed using 90 μl of lysis buffer (20 mM Tris/HCl pH 8.0, 150 mM NaCl, 1% NP40, 10% glycerol, 1% phosphatase inhibitor I, 1% phosphatase inhibitor II, 0.1% protease inhibitor cocktail III, 0.01% benzonase) per well, and the lysates are separated off from insoluble cell constituents by means of centrifugation through a 96-well filter plate (0.65 μm). The lysates are incubated overnight at 4° C. with shaking with Luminex beads to which an anti-total PKB antibody is coupled. The detection is carried out on the following day by addition of a P-S473-PKB antibody and a species-specific PE-labelled secondary antibody. The detection of P-S473-PKB is carried out by measurement in a Luminex100 instrument by determination of 100 events per cavity in a measurement time of 60 sec.

[5] = target: DNA-PK protein complex (Homo sapiens, UniProt P78527); assay: Biochemical DNA-PK assay (FlashPlate)
Procedure: The kinase assay is carried out in […] microtitre FlashPlates®, coated with streptavidin. […] The reaction is stopped by addition of 50 μl/well of 200 mM EDTA. After incubation for 30 minutes, the liquids are removed at room temperature. Each well is washed three times with 100 μl of 0.9% NaCl solution. Non-specific reaction (blank) is determined using a proprietary kinase inhibitor (10 μM). The radioactivity is measured by means of a Topcount. […] Todd Eary, J. G. Schiro, H. Huang, L. E. Burgess, E. A. Kesicki, and J. Halbrook.

Sequence of PI3Kbeta (P42338 whole entry): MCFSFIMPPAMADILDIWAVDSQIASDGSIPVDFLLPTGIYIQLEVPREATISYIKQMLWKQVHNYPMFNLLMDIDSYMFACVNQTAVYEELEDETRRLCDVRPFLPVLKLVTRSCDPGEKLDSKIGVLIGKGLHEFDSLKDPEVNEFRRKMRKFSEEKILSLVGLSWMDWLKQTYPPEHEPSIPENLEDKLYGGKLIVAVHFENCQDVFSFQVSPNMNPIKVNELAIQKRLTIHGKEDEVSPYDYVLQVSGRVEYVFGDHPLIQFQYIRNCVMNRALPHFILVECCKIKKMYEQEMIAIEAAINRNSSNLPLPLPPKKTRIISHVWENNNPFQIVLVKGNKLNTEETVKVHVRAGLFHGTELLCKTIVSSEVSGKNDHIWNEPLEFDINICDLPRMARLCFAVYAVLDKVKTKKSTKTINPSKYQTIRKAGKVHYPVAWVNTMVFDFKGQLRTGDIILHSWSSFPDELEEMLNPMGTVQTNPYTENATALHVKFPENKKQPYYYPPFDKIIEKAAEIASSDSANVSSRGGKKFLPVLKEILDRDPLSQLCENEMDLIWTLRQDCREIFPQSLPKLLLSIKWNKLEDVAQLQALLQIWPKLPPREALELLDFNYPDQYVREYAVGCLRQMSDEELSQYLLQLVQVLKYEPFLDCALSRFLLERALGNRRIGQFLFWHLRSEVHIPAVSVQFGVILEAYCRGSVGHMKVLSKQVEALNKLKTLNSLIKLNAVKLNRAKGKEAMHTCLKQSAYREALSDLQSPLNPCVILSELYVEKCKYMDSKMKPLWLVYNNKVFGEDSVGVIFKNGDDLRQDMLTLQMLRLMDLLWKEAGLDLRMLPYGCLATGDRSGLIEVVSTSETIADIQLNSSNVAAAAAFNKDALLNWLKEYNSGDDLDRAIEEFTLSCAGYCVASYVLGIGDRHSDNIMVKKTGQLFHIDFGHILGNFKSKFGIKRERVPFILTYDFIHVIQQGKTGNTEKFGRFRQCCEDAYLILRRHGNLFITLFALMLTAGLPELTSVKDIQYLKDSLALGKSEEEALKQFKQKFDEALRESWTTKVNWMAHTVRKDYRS
Sequence of PI3Kbeta (P27986 whole entry partner): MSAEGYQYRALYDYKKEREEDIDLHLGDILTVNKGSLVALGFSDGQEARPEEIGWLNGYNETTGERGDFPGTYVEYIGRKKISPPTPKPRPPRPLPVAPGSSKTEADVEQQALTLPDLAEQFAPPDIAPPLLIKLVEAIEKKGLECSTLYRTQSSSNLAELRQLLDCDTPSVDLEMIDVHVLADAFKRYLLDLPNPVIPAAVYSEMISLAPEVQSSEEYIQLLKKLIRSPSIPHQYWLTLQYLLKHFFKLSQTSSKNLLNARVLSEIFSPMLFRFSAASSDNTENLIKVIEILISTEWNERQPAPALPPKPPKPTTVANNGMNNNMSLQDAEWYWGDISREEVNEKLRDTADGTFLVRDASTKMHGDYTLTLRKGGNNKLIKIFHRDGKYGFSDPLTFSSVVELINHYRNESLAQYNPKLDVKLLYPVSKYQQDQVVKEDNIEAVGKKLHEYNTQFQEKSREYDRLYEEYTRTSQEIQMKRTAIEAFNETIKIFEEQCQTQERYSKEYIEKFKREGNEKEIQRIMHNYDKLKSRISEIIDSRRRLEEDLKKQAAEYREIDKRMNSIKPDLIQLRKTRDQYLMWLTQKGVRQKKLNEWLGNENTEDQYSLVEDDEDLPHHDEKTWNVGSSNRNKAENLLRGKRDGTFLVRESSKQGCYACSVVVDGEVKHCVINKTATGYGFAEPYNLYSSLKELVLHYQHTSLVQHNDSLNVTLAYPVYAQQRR
Sequence of PI3Kalpha (P42336 whole entry): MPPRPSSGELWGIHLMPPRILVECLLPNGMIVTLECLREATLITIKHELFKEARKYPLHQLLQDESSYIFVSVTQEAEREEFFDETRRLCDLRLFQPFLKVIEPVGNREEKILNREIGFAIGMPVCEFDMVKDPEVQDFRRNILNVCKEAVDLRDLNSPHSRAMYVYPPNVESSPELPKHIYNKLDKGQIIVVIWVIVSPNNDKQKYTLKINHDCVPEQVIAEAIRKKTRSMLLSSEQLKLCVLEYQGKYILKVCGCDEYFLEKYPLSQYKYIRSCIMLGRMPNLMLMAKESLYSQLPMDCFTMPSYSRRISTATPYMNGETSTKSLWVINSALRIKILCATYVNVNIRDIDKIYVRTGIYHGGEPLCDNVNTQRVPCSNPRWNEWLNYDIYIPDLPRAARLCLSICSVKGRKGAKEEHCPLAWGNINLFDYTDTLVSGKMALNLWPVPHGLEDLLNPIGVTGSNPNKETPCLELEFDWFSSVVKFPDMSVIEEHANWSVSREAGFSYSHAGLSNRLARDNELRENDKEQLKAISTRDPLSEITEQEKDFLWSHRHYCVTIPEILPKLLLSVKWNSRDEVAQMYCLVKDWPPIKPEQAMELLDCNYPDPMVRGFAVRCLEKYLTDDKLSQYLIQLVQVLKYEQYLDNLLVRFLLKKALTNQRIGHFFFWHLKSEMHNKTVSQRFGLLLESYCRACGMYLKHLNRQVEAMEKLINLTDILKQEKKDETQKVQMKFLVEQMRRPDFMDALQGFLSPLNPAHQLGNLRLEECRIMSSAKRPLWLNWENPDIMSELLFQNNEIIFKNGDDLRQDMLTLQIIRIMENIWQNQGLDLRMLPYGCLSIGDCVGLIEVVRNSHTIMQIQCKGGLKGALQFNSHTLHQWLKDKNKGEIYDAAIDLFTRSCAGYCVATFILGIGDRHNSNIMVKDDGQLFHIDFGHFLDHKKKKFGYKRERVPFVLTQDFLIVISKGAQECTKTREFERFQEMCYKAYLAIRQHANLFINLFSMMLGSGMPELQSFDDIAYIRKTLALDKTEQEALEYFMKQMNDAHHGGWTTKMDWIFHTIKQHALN
Sequence of PI3Kalpha (P27986 whole entry partner): as the sequence (P27986 whole entry partner) above
Sequence of recombinant PI3Kalpha (shortened form of the catalytic subunit) (P42336 151-1068 limits assumed): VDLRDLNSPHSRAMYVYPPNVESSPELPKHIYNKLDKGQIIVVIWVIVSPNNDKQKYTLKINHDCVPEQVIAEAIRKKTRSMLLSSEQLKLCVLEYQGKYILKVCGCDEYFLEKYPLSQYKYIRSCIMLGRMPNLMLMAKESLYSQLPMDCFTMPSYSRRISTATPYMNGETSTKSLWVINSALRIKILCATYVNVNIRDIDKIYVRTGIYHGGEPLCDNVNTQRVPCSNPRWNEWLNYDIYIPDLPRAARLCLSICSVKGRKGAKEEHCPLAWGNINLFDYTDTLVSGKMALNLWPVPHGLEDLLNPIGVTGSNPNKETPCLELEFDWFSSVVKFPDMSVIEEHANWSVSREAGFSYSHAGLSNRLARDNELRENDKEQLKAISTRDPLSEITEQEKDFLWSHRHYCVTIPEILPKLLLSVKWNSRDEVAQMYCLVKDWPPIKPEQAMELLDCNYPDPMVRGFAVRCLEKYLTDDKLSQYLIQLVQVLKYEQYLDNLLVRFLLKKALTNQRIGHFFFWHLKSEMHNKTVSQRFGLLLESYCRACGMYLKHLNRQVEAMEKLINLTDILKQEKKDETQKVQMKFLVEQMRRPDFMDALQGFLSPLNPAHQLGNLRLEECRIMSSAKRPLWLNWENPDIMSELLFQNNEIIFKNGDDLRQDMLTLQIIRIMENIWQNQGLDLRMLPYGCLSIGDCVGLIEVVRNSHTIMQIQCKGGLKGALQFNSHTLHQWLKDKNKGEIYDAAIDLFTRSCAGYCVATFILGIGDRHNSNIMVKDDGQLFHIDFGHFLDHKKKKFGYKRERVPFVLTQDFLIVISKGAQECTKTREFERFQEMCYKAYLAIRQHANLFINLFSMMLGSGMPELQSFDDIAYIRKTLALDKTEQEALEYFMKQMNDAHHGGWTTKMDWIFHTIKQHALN

IC50 [1]	IC50 [2]	Kd [3]	IC50 [4]	IC50 [5]	SMILES
100 to 10000 nM	100 to 10000 nM	100 to 10000 nM	100 to 10000 nM	100 to 10000 nM	COc1ccc(-c2ccnc(-c3c[nH]c(=O)n3-c3ccc(N4CCNCC4)c(C(F)(F)F)c3)c2)cn1 [Example A4, 5-(6-Methoxy-[3,4′]bipyridinyl-2′-yl)-1-(4-piperazin-1-yl-3-trifluoromethylphenyl)-1,3-dihydroimidazol-2-one]
100 to 10000 nM	100 to 10000 nM	100 to 10000 nM	100 to 10000 nM	100 to 10000 nM	Cn1cc(-c2cc(-c3cnc4ccccc4c3)ccn2)n(-c2ccc(N3CCNCC3)c(C(F)(F)F)c2)c1=O [Example A19, 1-Methyl-3-(4-piperazin-1-yl-3-trifluoromethylphenyl)-4-(4-quinolin-3-ylpyridin-2-yl)-1,3-dihydroimidazol-2-one]
0.1 to 100 nM	100 to 10000 nM	0.1 to 100 nM	100 to 10000 nM	0.1 to 100 nM	CC(C)(C#N)c1ccc(-n2c(-c3cc(-c4cnc5[nH]ccc5c4)ccn3)c[nH]c2=O)cc1 [Example A28, 2-Methyl-2-(4-{2-oxo-5-[4-(1H-pyrrolo[2,3-b]pyridin-5-yl)pyridin-2-yl]-2,3-dihydroimidazol-1-yl}phenyl)propionitrile]
0.1 to 100 nM	100 to 10000 nM	0.1 to 100 nM	100 to 10000 nM	0.1 to 100 nM	COC(=O)c1c[nH]c2ncc(-c3ccnc(-c4cn(C)c(=O)n4-c4ccc(C(C)(C)C#N)cc4)c3)cc12 [Example A29, Methyl 5-(2-{3-[4-(cyanodimethylmethyl)phenyl]-1-methyl-2-oxo-2,3-dihydro-1H-imidazol-4-yl}pyridin-4-yl)-1H-pyrrolo[2,3-b]pyridine-3-carboxylate]
100 to 10000 nM	100 to 10000 nM	0.1 to 100 nM	> 10000 nM	0.1 to 100 nM	Cn1cc(-c2cc(-c3cnc4[nH]ccc4c3)ccn2)n(-c2ccc(C(C)(C)C(=O)O)cc2)c1=O [Example A33, 2-Methyl-2-(4-{3-methyl-2-oxo-5-[4-(1H-pyrrolo[2,3-b]pyridin-5-yl)pyridin-2-yl]-2,3-dihydroimidazol-1-yl}phenyl)propionic acid]
100 to 10000 nM	100 to 10000 nM	0.1 to 100 nM	100 to 10000 nM	0.1 to 100 nM	Cn1cc(-c2cc(-c3cnc(N)c(C#N)c3)ccn2)n(-c2ccc(C(C)(C)C#N)cc2)c1=O [Example A37, 6-Amino-2′-{3-[4-(cyanodimethylmethyl)phenyl]-1-methyl-2-oxo-2,3-dihydro-1H-imidazol-4-yl}-[3,4′]bipyridinyl-5-carbonitrile]
0.1 to 100 nM	100 to 10000 nM	0.1 to 100 nM	100 to 10000 nM	100 to 10000 nM	Cn1cc(-c2cc(-c3cnc4[nH]cnc4c3)ccn2)n(-c2ccc(C(C)(C)C#N)cc2)c1=O [Example A38, 2-(4-{5-[4-(3H-Imidazo[4,5-b]pyridin-6-yl)pyridin-2-yl]-3-methyl-2-oxo-2,3-dihydroimidazol-1-yl}phenyl)-2-methylpropionitrile]
100 to 10000 nM	100 to 10000 nM	100 to 10000 nM	100 to 10000 nM	0.1 to 100 nM	Cn1cc(-c2cc(-c3cnc4[nH]ccc4c3)ccn2)n(-c2ccc(C#N)cc2)c1=O [Example A48, 4-{3-Methyl-2-oxo-5-[4-(1H-pyrrolo[2,3-b]pyridin-5-yl)pyridin-2-yl]-2,3-dihydro-imidazol-1-yl}benzonitrile]
100 to 10000 nM	100 to 10000 nM	0.1 to 100 nM	100 to 10000 nM	100 to 10000 nM	Cn1cc(-c2cc(-c3cnc(N)c(C(F)(F)F)c3)ccn2)n(-c2ccc(N3CCNCC3)c(C(F)(F)F)c2)c1=O [Example A56, 4-(6-Amino-5-trifluoromethyl-[3,4′]bipyridinyl-2′-yl)-1-methyl-3-(4-piperazin-1-yl-3-trifluoromethylphenyl)-1,3-dihydroimidazol-2-one]
100 to 10000 nM	100 to 10000 nM	100 to 10000 nM	100 to 10000 nM	100 to 10000 nM	Cn1cc(-c2cc(-c3ccc4[nH]ccc4c3)ccn2)n(-c2ccc(N3CCNCC3)c(C(F)(F)F)c2)c1=O [Example A57, 4-[4-(1H-Indol-5-yl)pyridin-2-yl]-1-methyl-3-(4-piperazin-1-yl-3-trifluoromethyl-phenyl)-1,3-dihydroimidazol-2-one]
100 to 10000 nM	100 to 10000 nM	0.1 to 100 nM	100 to 10000 nM	0.1 to 100 nM	Cn1cc(-c2cc(-c3ccc(N)nc3)ccn2)n(-c2ccc(N3CCNCC3)c(C(F)(F)F)c2)c1=O [Example A59, 4-(6-Amino-[3,4′]bipyridinyl-2′-yl)-1-methyl-3-(4-piperazin-1-yl-3-trifluoromethyl-phenyl)-1,3-dihydroimidazol-2-one]
> 10000 nM	> 10000 nM	> 10000 nM	> 10000 nM	0.1 to 100 nM	Cn1cc(-c2cc(-c3ccc(NS(C)(=O)=O)cc3)ccn2)n(-c2ccc(N3CCNCC3)c(C(F)(F)F)c2)c1=O [Example A62, N-(4-{2-[1-Methyl-2-oxo-3-(4-piperazin-1-yl-3-trifluoromethylphenyl)-2,3-dihydro-1H-imidazol-4-yl]pyridin-4-yl}phenyl)methanesulfonamide]
100 to 10000 nM	100 to 10000 nM	0.1 to 100 nM	100 to 10000 nM	0.1 to 100 nM	Cn1cc(-c2cc(-c3cnc(N)c(C(F)(F)F)c3)ccn2)n(-c2cccc(C#N)c2)c1=O [Example A64, 3-[5-(6-Amino-5-trifluoromethyl-[3,4′]bipyridinyl-2′-yl)-3-methyl-2-oxo-2,3-dihydroimidazol-1-yl]benzonitrile]
100 to 10000 nM	100 to 10000 nM	0.1 to 100 nM	100 to 10000 nM	0.1 to 100 nM	Cn1cc(-c2cc(-c3cnc(N)c(C#N)c3)ccn2)n(-c2ccc(N3CCNCC3)c(C(F)(F)F)c2)c1=O [Example A65, 6-Amino-2′-[1-methyl-2-oxo-3-(4-piperazin-1-yl-3-trifluoromethylphenyl)-2,3-dihydro-1H-imidazol-4-yl]-[3,4′]bipyridinyl-5-carbonitrile]
> 10000 nM	> 10000 nM	> 10000 nM	> 10000 nM	> 10000 nM	CCc1cccc(-n2c(-c3cc(-c4cnc5[nH]ccc5c4)ccn3)cn(C)c2=O)c1 [Example A66, 3-(3-Ethylphenyl)-1-methyl-4-[4-(1H-pyrrolo[2,3-b]pyridin-5-yl)pyridin-2-yl]-1,3-dihydroimidazol-2-one]
